Assay results taken from patent US12502393B2, “Dual mode of action soluble guanylate cyclase activators and phosphodiesterase inhibitors and uses thereof” (TOPADUR PHARMA AG, priority 2018, dated 2025).
Read-outs that look alike come from different tables or passages of the source.

What was measured:
[1] = Human plasma protein binding; type: in vitro ADME; details: for fraction unbound: human
Description: An aliquot of 200 μL of human plasma containing test compound was spiked into donor well (red chamber) of the insert. 350 μL of PBS was spiked into receiver well (white chamber) of the insert.
The samples were matrix equilibrated with opposite matrix (25 μL of plasma/buffer sample was matched with 25 μL of blank buffer/plasma). Matrix matched samples were precipitated with 200 μL of acetonitrile containing internal standard. Samples were vortexed at 1000 rpm for 5 min and centrifuged at 4000 rpm for 10 min. Supernatant was separated, diluted 2 fold with water and analysed in LC-MS/MS. (Table 2).

[2] = system: Human Trabecular Meshwork Cells; experiment: Cellular cGMP assay in human trabecular meshwork cells; type: cell-based; details: 10 μM Riociguat; for Concentration (nM) for 3-fold or 2-fold* cGMP increase vs Baseline: 3-fold increase (values without asterisk); for Ratio Maximum cGMP increase vs Baseline: 5 mM GSH, incubation 2 h
[3] = system: Human Platelets; experiment: Total cGMP in human platelets; type: cell-based; details: for Ratio Maximum cGMP increase vs Baseline: 1 μM riociguat and 100 nM BAY 190954, incubation 2 h; for Concentration (nM) for 3-fold cGMP or 2-fold* increase vs Baseline: 3-fold increase (values without asterisk), 1 μM riociguat, 100 nM BAY 190954
Description: Effects of test and reference compounds on total cGMP in human platelets were investigated as described by Dunkern and Hatzelmann (Cell Signal. 17: 331-9, 2005) with modifications. Briefly, buffy coats (acquired form SRK Blutspende Zurich) were 4-fold diluted in 150 mM sodium chloride solution containing 0.9% sodium citrate and centrifuged at 200 g for 10 min. The resulting platelet-rich plasma was supplemented with a 1/10 volume of ACD solution (85 mM sodium citrate, 111 mM D-glucose, 71 mM citric acid, pH 4.4) and apyrase (Sigma AG) to a final concentration of 2 U/ml. After another centrifugation (1400 g, 10 min) the cellular pellet was resuspended in Ca2+/Mg2+-free Hepes-Tyrode buffer (134 mM NaCl, 12 mM NaHCO3, 2.9 mM KCl, 0.36 mM NaH2PO4, 5 mM HEPES, 5 mM glucose, 0.5% (w/v) bovine serum albumin, pH 7.4) and platelets were counted.
Platelets were used at 9×10^7 cells in 100 μl per well and after adding test and reference compounds the incubation volume was 200 μl per well in Hepes-Tyrode. Experiments in platelets were done in presence of 1 μM riociguat and 100 nM BAY 190954 (PDE2 inhibitor) (Lucerna Chem AG) and test/reference compounds were added after a preincubation time of 15 min. At the end of the incubation time (see below) the reaction was terminated by adding 20 μl of 2N HCl per well. Following a 20 sec on a plate shaker (300 rpm) the plate was left for 15 min and then centrifuged at 1000×g for 5 min. Supernatants were stored at −80° C.
(§1) cGMP was determined by a commercially available ELISA kit (Direct cGMP ELISA kit, Enzo Life Sciences AG, Lauren, Switzerland) with a lower detection limit of 0.08 pmol/ml using the acetylation protocol following manufacturer's instructions. Results are given as the means from at least two independent experiments each in triplicate.
(§2) To study concentration-dependent effects on total cGMP test and reference compounds were investigated from 0.1 nM to 1 μM in half-logarithmic steps with an incubation time of 2 h. To examine the time course the incubation times were (min) 10, 30, 60, 90, 120 at 1 μM of test or reference compound.
(§3) Compounds were diluted from stock solutions in DMSO. The final concentration of DMSO in all wells including the vehicle controls was 0.2% for human trabecular meshwork and rat aortic smooth muscle cells and 0.3% for platelets.
(§4) From time course experiments, the time to half of the maximum cGMP increase with 1 μM of test compound has been extrapolated (t0.5max).

[4] = system: Rat aortic smooth muscle cells; experiment: Cellular cGMP assay in rat aortic smooth muscle cells; type: cell-based; details: 10 μM Riociguat; for Ratio Maximum cGMP increase vs Baseline: 5 mM GSH, incubation 2 h
Description: Examples (Test compounds) were characterized for their potency and efficacy to elevate cGMP in cellular systems such as human trabecular meshwork cells (Table 3), human platelets (Table 5) and rat aortic smooth muscle cells (Table 4).
Human trabecular meshwork cells (ABC Biopply AG, Solothurn, Switzerland) or rat aortic smooth muscle cells (Sigma Aldrich AG, Buchs, Switzerland) were plated in a 96 well plate precoated with collagen (Collagen Type I solution from rat tail, Sigma; diluted to 0.1 mg/ml) at 20.000 cells per well and grown in corresponding Trabecular Meshwork (ABC Supply AG) or Smooth Muscle (Sigma AG) Growth medium as provided by the manufacturers. After 18 h medium was exchanged and new medium added supplemented with 5 mM GSH. The next day culture medium was exchanged to DMEM with low glucose supplemented with 5 mM GSH. Cells were pre-incubated with 10 μM Riociguat (soluble guanylate cyclase stimulator; Lucerna-Chem AG, Luzern, Switzerland) for 15 min before test or reference compounds or vehicle was added to a final incubation volume of 100 μl per well. At the end of the incubation time (see below) the reaction was terminated by adding HCl (0.16M), IBMX (Isobutylmethylxanthin) (2 mM) in DMSO (2%) to the culture medium, final concentrations per well are given in brackets. Following a 20 sec on a plate shaker (200 rpm) the plate was immediately frozen at −80° C.
as §1, §2, §3, §4

[5] = molecular target: T1, recombinant human (rh) PDE5A (Homo sapiens, UniProt O76074); experiment: Phosphodiesterase-5 activity assay (radiometric SPA); type: biochemical; details: rhPDE5A1, 0.5 μM cGMP, 20 min at 37° C.
T1 construct: GST; purchased SIGMA E9034

[6] = system: Human Pulmonary Artery Smooth Muscle Cells (hPASMC); experiment: cGMP in human pulmonary artery smooth muscle cells (hPASMC); type: cell-based; details: 30 min incubation, FIG. 4
Description: Human Pulmonary Artery Smooth Muscle Cells (hPASMC) were purchased from Clonetics™ Lonza (Lonza, reference number CC-2581) and cultured in Clonetics™ smooth muscle growth medium (Clonetics™ SmGM™-2 with BulletKit™ growth factor supplements (Lonza, reference number CC-3182) at 37° C. in 5% CO2. Culture medium was replaced each 48 hours. Cells were grown in 75 cm^2 culture plates.
48 h before the experiments, cells were trypsinized (Trypsin kit One ReagentPack™ (CC-5034), Lonza) and plated in 96 well plates precoated with collagen I at 10000 cells per well. 24 h before the experiments culture medium was replaced by serum-reduced (0.5% FBS) medium.
Measurements of intracellular cGMP were performed using the Amersham cGMP EIA System (GE Healthcare, RPN226) following the instructions of the manufacturer. The assay has a sensitivity of 2 fmol cGMP per well. Briefly, incubations were terminated by adding Amersham's lysis buffer 1 and cells left for 10 min under agitation to ensure complete lysis. cGMP in samples was then acetylated using triethylamine and acetic anhydride and determined by a competitive ELISA. The ELISA is based on the competition between acetylated cGMP in cell culture lysates and a peroxidase-labelled cGMP conjugate for limited binding sites on a cGMP specific antiserum immobilized on pre-coated 96 well MTP. cGMP was determined based on a standard curve. […]

[7] = read-out: % Unbound in human plasma

Structure (SMILES)	fraction unbound ([1]; read-out: % Bound in human plasma (converted))	IC50 [5] [nM]	fraction unbound [1, 7]	Concentration (nM) for 3-fold or 2-fold* cGMP increase vs Baseline ([2]; HTMC) [nM]	Ratio Maximum cGMP increase vs Baseline ([2]; HTMC)	Ratio Maximum cGMP increase vs Baseline [3]	Concentration (nM) for 3-fold cGMP or 2-fold* increase vs Baseline [3] [nM]	Concentration (nM) for 3-fold cGMP increase vs Baseline [4] [nM]	Ratio Maximum cGMP increase vs Baseline [4]	efficacy in increasing cGMP level as compared to the reference inhibitor vardenafil [6]	% Bound in human plasma [1] [%]	effect to elevate cGMP in HTMC compared with organic nitrate ester ITN and PDE5 inhibitors sildenafil or vardenafil ([2]; HTMC, FIG. 3A and FIG. 3B)	concentration equipotent to ITN & Vardenafil to elevate cGMP in HTMC ([2]; equipotent to 1 μM ITN & 1 μM Vardenafil) [nM]	concentration equipotent to ITN & Vardenafil to elevate cGMP in HTMC ([2]; equipotent to 10 μM ITN & 1 μM Vardenafil) [nM]	concentration equipotent to ITN & Sildenafil to elevate cGMP in HTMC ([2]; first value of pair 10.6 nM/50.8 nM, printed against 10 μM ITN & 1 μM Sildenafil) [nM]	concentration equipotent to ITN & Sildenafil to elevate cGMP in HTMC ([2]; second value of pair 10.6 nM/50.8 nM, equipotent to 10 μM ITN & 1 μM Sildenafil) [nM]
CCCc1nc(C)c2c(=O)[nH]c(-c3cc(S(=O)(=O)N4CCC([C@@H](O)CO[N+](=O)[O-])CC4)ccc3OCC)nn12 [Compound 2c, (R)-2-(1-((4-ethoxy-3-(5-methyl-4-oxo-7-propyl-3,4-dihydroimidazo[5,1-f][1,2,4]triazin-2-yl)phenyl)sulfonyl)piperidin-4-yl)-2-hydroxyethyl nitrate]		0.14		10.1	52.1	105.4	4.3	729	5.93							
CCCc1nc(C)c2c(=O)[nH]c(-c3cc(S(=O)(=O)N4CCC([C@@H](O)CO)CC4)ccc3OCC)nn12 [Compound 25, (R)-2-(5-((4-(1,2-dihydroxyethyl)piperidin-1-yl)sulfonyl)-2-ethoxyphenyl)-5-methyl-7-propyl imidazo[5,1-f][1,2,4]triazin-4(3H)-one]		0.08		58.5	22.3	23.3	5.9	>10000	0.89							
CCCc1nc(C)c2c(=O)[nH]c(-c3cc(S(=O)(=O)N4CCC([C@H](CO[N+](=O)[O-])O[N+](=O)[O-])CC4)ccc3OCC)nn12 [Compound 2a, (R)-1-(1-((4-ethoxy-3-(5-methyl-4-oxo-7-propyl-3,4-dihydroimidazo[5,1-f][1,2,4]triazin-2-yl)phenyl)sulfonyl)piperidin-4-yl)ethane-1,2-diyl dinitrate]		0.42	0.002	4.2	101.7	152.5	3.3	293	10.58	significantly higher efficacy	99.80	over-additive effects	2.6	12.4	10.6	50.8

The next lines start with results.

fraction unbound ([1]; read-out: % Bound in human plasma (converted))	IC50 [5] [nM]	Structure (SMILES)	fraction unbound [1, 7]	Concentration (nM) for 3-fold or 2-fold* cGMP increase vs Baseline ([2]; HTMC) [nM]	Ratio Maximum cGMP increase vs Baseline ([2]; HTMC)	Ratio Maximum cGMP increase vs Baseline [3]	Concentration (nM) for 3-fold cGMP or 2-fold* increase vs Baseline [3] [nM]	Concentration (nM) for 3-fold cGMP increase vs Baseline [4] [nM]	Ratio Maximum cGMP increase vs Baseline [4]	efficacy in increasing cGMP level as compared to the reference inhibitor vardenafil [6]	% Bound in human plasma [1] [%]	effect to elevate cGMP in HTMC compared with organic nitrate ester ITN and PDE5 inhibitors sildenafil or vardenafil ([2]; HTMC, FIG. 3A and FIG. 3B)	concentration equipotent to ITN & Vardenafil to elevate cGMP in HTMC ([2]; equipotent to 1 μM ITN & 1 μM Vardenafil) [nM]	concentration equipotent to ITN & Vardenafil to elevate cGMP in HTMC ([2]; equipotent to 10 μM ITN & 1 μM Vardenafil) [nM]	concentration equipotent to ITN & Sildenafil to elevate cGMP in HTMC ([2]; first value of pair 10.6 nM/50.8 nM, printed against 10 μM ITN & 1 μM Sildenafil) [nM]	concentration equipotent to ITN & Sildenafil to elevate cGMP in HTMC ([2]; second value of pair 10.6 nM/50.8 nM, equipotent to 10 μM ITN & 1 μM Sildenafil) [nM]
0.0118	1	CCCc1nn(C)c2c(=O)[nH]c(-c3cc(S(=O)(=O)N4CCC([C@@H](O)CO[N+](=O)[O-])CC4)ccc3OCC)nc12 [Compound 1c, (R)-2-(1-((4-ethoxy-3-(1-methyl-7-oxo-3-propyl-6,7-dihydro-1H-pyrazolo[4,3-d]pyrimidin-5-yl)phenyl)sulfonyl)piperidin-4-yl)-2-hydroxyethyl nitrate]	0.0118	25.1	61.9	26.1	33.3	1300	3.47	significantly higher efficacy						
	1.5	CCCc1nn(C)c2c(=O)[nH]c(-c3cc(S(=O)(=O)N4CCC([C@@H](O)CO)CC4)ccc3OCC)nc12 [Compound 4, (R)-5-(5-((4-(1,2-dihydroxyethyl)piperidin-1-yl)sulfonyl)-2-ethoxyphenyl)-1-methyl-3-propyl-1,6-dihydro-7H-pyrazolo[4,3-d]pyrimidin-7-one]		99.8	12.4	6.4	92.6	>10000	1.04							
